Laboratory results reported in US20040241244A1, “Neuronal growth enhancement by prostaglandin compositions and methods” (NexMed (Holdings) Inc., priority 2003, published 2004).
Values joined by “and” are separate entries in the source; they are usually repeats but may differ in a detail not shown here. Equal entries are not always repeated. Where two headings read alike, the source gives them in different places.

Assays:
EP2 receptor = EP2 receptor (Mus musculus, UniProt Q62053); settings: read-out: affinity for the EP2 receptor; cited from earlier work
[1] = tested on: mouse neuroblastoma cells; settings: cited from earlier work
[2] = tested on: cultured mouse dorsal root ganglion neurons; settings: 20 micromolar, at 2 hours; cited from earlier work
[3] = tested on: patients after nerve sparing RRP; settings: three months of intracavernous injections three times a week; patients completing treatment; cited from earlier work
[4] = tested on: mouse neuroblastoma cells; test: Neurite extension in neuroblastoma cells in culture (Prasad, 1972); type: cell-based; settings: converted from micrograms/ml
Excerpt: “Neurite” is a broad term used to describe both axons and dendrites produced by a nerve cell; most commonly used to cover all cellular processes produced by neurons in culture (Kendrew, J., editor, The Encyclopedia of Molecular Biology, Blackwell Science Ltd., Oxford, 1994, page 709).

[5] = tested on: dorsocaudal regions of rat major pelvic ganglia (DCR-MPG); test: Neurite outgrowth in primary cultures of dorsocaudal regions of rat major pelvic ganglia; type: cell-based, Sprague-Dawley rats
Method: The dorsocaudal regions of 24 major pelvic ganglia (DCR-MPG) were dissected from Sprague-Dawley rats. Each sample was placed on a reduced-growth factor Matrigel coated glasscover slide in a culture dish filled with serum-free medium. […] The ganglia cultures were incubated at 37° C. in a humidified atmosphere with 5% CO2. Digital photographs were taken of neurite growth after 96 hours.
Growth Factor Reduced Matrigel (Passaniti, A., et al., Lab. Invest. 1992 67:518-528) was purchased from Becton Dickinson (Mountain View, Calif.). Cell culture grade PGE1 was purchased from Sigma Chemical. (St. Louis, Mo.). RPIM-1640 and other cell culture reagents were purchased from GIBCO Invitrogen Corp. (Grand Island, N.Y.).
Male Sprague-Dawley rats, two-months old, were used in this study. All animal care, treatments, and procedures were approved by the institutional Committee on Animal Research. The rats were sacrificed by intraperitoneal injection of sodium pentobarbital (50 mg/kg) followed by bilateral thoracotomy and the removal of the dorsocaudal region of the major pelvic ganglia (DCR-MPG).
Each rat supplied a pair of DCR-MPG; one was used as control and the contralateral ganglion was treated with PGE1. The DCR-MPG isolated from Sprague-Dawley rats were cultured attached to Matrigel-coated glass coverslips. The coverslips were used as the supporting platform to facilitate samples processing for histological staining and examination. Coverslips were coated as follows. Growth Factor Reduced Matrigel (Becton Dickinson, Mountain View, Calif.) was diluted 3-fold in serum-free RPMI-1640 in a 35-mm culture dish on ice. The diluted Matrigel was then spread onto cold sterilized glass coverslips using a sterilized glass slide as spreader. The coated coverslips were placed in 35-mm culture dishes and incubated at 37° C. for 1 hr to allow the Matrigel to solidify. Each freshly dissected DCR-MPG was rinsed in phosphate-buffered saline (PBS), cut into equal thirds, placed on top of Matrigel coated coverslips and covered by 50 μl cold Growth Factor Reduced Matrigel which had been kept in liquid form. After a 5-min incubation at 37° C. to allow the Matrigel to polymerize, 3 ml of serum-free RPMI 1640 medium supplemented with 1×penicillin-streptomycin-fungizone (Cell Culture Facility, University of California, San Francisco) was added. […] The ganglia cultures were maintained at 37° C. in a humidified atmosphere with 5% CO2.
After 2 to 3 days of incubation, the ganglia and outgrowing neurites were stained for nicotinamide adenine dinucleotide phosphate (NADPH) diaphorase as an indication of nitric oxide synthase (NOS) expression. The culture medium was removed from each culture and replaced with a fixative solution of 2% formaldehyde, 0.002% picric acid in 0.1 M phosphate buffer, pH 8.0. After 20 min of fixation, the tissue was rinsed three times, 10 min each, with phosphate buffer, pH 8.0. The tissue was then incubated with 0.1 mM NADPH, 0.2 mM nitroblue tetrazolium, 0.2% Triton X-100 in buffer for approximately 30 min at room temperature with constant microscopic monitoring for color development. When a deep blue color was detected for NADPH-diaphorase positive nerves, the reaction was terminated by washing the tissues with buffer three times, 10 min each. The coverslips containing the ganglia were then mounted onto glass slides using buffered glycerin as mounting medium.
Neurites were photographed using a professional DCS-420 digital camera (Eastman Kodak, Rochester, N.Y.) connected to an Olympus microscope and an Apple Macintosh PowerMac computer. All samples were photographed and the images were stored for later analysis. The digital images were analyzed using Chemilmager 4000 software (Alpha Innotech Corporation, San Leandro, Calif.) to determine the maximum length of the outgrowing neurites fibers.
Statistical analysis was performed using computer software from Primer of Biostatistics, 3rd ed. (Glantz SA, McGraw-Hill, Inc. New York, 1992). […]

Sequence of EP2 receptor (Q62053 whole entry): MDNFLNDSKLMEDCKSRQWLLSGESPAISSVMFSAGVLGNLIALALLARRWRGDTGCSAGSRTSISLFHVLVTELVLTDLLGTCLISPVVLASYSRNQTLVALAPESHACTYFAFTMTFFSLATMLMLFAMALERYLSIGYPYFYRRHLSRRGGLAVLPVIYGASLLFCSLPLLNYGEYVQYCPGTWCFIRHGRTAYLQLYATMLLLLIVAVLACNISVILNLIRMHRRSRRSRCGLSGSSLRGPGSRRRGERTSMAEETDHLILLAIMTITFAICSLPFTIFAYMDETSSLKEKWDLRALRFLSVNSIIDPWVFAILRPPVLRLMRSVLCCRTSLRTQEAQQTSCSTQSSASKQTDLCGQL

## CCCCC[C@H](O)/C=C/[C@H]1[C@H](O)CC(=O)[C@@H]1C/C=C\CCCC(=O)O [PGE2, Prostaglandin E2]
EP2 receptor
  Kd: ~10 nM
[1]
  optimum concentration for neurite extension: same optimum concentration
[2]
  neurite extension: significantly different from control

## Prostaglandin E1 [PGE1]
[3]
  patients reporting recovery of spontaneous erections sufficient for intercourse: 8 of the 12
[4]
  optimum concentration for neurite extension: about 30 micromolar
[1]
  optimum concentration for neurite extension: about 10 micrograms/ml
  optimum time of exposure: 3 to 5 days
[5]; 1 μM PGE1, 96 hours culture
  Neurite Growth (Length of longest neurite), Mean: 168.00 μm
[5]; 10 μM PGE1, 96 hours culture
  Neurite Growth (Length of longest neurite), Mean: 229.33±10.7 μm and 229.33 μm
[5]; 20 μM PGE1, 96 hours culture
  Neurite Growth (Length of longest neurite), Mean: 244.00 μm
[5]; 30 μM PGE1
  fiber length induced: 250 ± 38.1 µm
  peak neurite growth (mean ± standard deviation): 250±63 micrometers
[5]; 30 μM PGE1, 96 hours culture
  Neurite Growth (Length of longest neurite), Mean: 250.29 μm
[5]; 60 μM PGE1, 96 hours culture
  Neurite Growth (Length of longest neurite), Mean: 138.00 μm
[5]; 60 μM, 100 μM
  maximum neurite extension at high doses: smaller maximum neurite extension
[5]; 100 μM PGE1, 96 hours culture
  Neurite Growth (Length of longest neurite), Mean: 112.00 μm
[5]; primary cultures, 1-100 μM
  effect on neurite outgrowth of NADPH positive cells: enhance neurite outgrowth
[5]; tested at 1, 10, 20, 30, 60 or 100 μM
  PGE1 concentration at which the maximum effect on neurite outgrowth was observed: 30 µM
